According to patent US20090099177A1, “PYRIDYL COMPOUNDS” (priority 2006, published 2009):
Counter-ions that a name gives are not always drawn.

Legend:
[1] = target: T1, human EP3 receptor (Homo sapiens, UniProt P43115); assay: human EP3 calcium mobilisation assay; format: cell-based; details: human EP3, CHO-K1 cells, antagonism of PGE2; averages of a number of experiments; read-out: functional pKi value (converted)
T1 construct: expressed in transfected cells; host or cells: CHO-K1
T1 sequence (P43115 1-390): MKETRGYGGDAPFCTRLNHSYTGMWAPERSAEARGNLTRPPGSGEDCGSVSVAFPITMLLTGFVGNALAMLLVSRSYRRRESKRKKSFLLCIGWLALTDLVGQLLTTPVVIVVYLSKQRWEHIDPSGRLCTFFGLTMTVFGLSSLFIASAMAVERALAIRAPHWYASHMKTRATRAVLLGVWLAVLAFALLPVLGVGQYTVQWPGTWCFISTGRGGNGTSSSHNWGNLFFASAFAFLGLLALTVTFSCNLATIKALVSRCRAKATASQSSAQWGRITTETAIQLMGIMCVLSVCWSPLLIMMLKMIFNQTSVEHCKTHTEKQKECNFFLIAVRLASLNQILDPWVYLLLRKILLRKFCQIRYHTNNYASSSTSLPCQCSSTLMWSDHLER
Method: (§1) Briefly, the antagonist properties of compounds are assessed by their ability to inhibit the mobilisation of intracellular calcium ([Ca^2+]i) in response to activation of EP1 or EP3 receptors by the natural agonist hormone prostaglandin E2 (PGE2). Increasing concentrations of antagonist reduce the amount of calcium that a given concentration of PGE2 can mobilise. The net effect is to displace the PGE2 concentration-effect curve to higher concentrations of PGE2. The amount of calcium produced is assessed using a calcium-sensitive fluorescent dye such as Fluo-4, AM and a suitable instrument such as a Fluorimetric Imaging Plate Reader (FLIPR). Increasing amounts of [Ca^2+]i produced by receptor activation increase the amount of fluorescence produced by the dye and give rise to an increasing signal. The signal may be detected using the FLIPR instrument and the data generated may be analysed with suitable curve-fitting software.
(§2) The human EP1 or EP3 calcium mobilisation assay (hereafter referred to as ‘the calcium assay’) utilises Chinese hamster ovary-K1 (CHO-K1) cells into which a stable (pCIN; BioTechniques 20 (1996): 102-110) vector containing either EP1 or EP3 cDNA has previously been transfected. Cells are cultured in suitable flasks containing culture medium such as DMEM:F-12 supplemented with 10% v/v foetal calf serum, 2 mM L-glutamine, 0.25 mg/ml geneticin, 100 μM flurbiprofen and 10 μg/ml puromycin.
(§3) For assay, cells are harvested using a proprietary reagent that dislodges cells such as Versene. Cells are re-suspended in a suitable quantity of fresh culture media for introduction into a 384-well plate. Following incubation for 24 hours at 37° C. the culture media is replaced with a medium containing Fluo-4 and the detergent pluronic acid, and a further incubation takes place. Concentrations of compounds are then added to the plate in order to construct concentration-effect curves. This may be performed on the FLIPR in order to assess the agonist properties of the compounds. Concentrations of PGE2 are then added to the plate in order to assess the antagonist properties of the compounds.
(§4) The data so generated may be analysed by means of a computerised curve-fitting routine. The concentration of compound that elicits a half-maximal inhibition of the calcium mobilisation induced by PGE2 (pIC50) may then be estimated.

[2] = target: T2, human EP1 receptor (Homo sapiens, UniProt P34995); assay: human EP1 calcium mobilisation assay; format: cell-based; details: for Ki: human EP1, CHO-K1 cells, antagonism of PGE2, averages of a number of experiments, read-out: functional pKi value (converted)
T2 construct: expressed in transfected cells; host or cells: CHO-K1
T2 sequence (P34995 1-402): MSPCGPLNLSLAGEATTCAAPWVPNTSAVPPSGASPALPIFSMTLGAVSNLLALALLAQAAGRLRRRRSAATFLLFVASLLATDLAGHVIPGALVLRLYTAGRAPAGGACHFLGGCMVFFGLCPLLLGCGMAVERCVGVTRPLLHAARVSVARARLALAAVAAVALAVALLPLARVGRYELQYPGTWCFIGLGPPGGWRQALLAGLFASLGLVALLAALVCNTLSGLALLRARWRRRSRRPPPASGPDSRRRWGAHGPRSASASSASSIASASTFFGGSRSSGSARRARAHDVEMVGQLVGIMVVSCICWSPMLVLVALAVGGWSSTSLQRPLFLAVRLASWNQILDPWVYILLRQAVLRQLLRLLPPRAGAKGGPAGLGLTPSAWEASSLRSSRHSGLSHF
Method: as §1, §2, §3, §4

[3] = target: T3, human prostanoid EP1 receptor (Homo sapiens, UniProt P34995); assay: Binding assay for the human prostanoid EP1 receptor (competition with [3H]-PGE2); details: [3H]-PGE2 competition, human EP1, CHO-K1 membranes; averages of a number of experiments; read-out: pIC50 value (converted)
T3 construct: expressed in transfected cells; host or cells: CHO-K1 (membrane fraction)
T3 sequence (P34995 1-402): T2 sequence (P34995 1-402)
Method: Competition assay using [^3H]-PGE2.
Compound potencies are determined using a radioligand binding assay. In this assay compound potencies are determined from their ability to compete with tritiated prostaglandin E2 ([^3H]-PGE2) for binding to the human EP1 receptor.
This assay utilises Chinese hamster ovary-K1 (CHO-K1) cells into which a stable vector containing the EP1 cDNA has previously been transfected. Cells are cultured in suitable flasks containing culture medium such as DMEM:F-12 supplemented with 10% v/v foetal calf serum, 2 mM L-glutamine, 0.25 mg/ml geneticin, 10 μg/ml puromycin and 10 μM indomethacin.
Cells are detached from the culture flasks by incubation in calcium and magnesium free phosphate buffered saline containing 1 mM disodium ethylenediaminetetraacetic acid (Na2EDTA) and 10 μM indomethacin for 5 min. The cells are isolated by centrifugation at 250×g for 5mins and suspended in an ice cold buffer such as 50 mM Tris, 1 mM Na2EDTA, 140 mM NaCl, 10 μM indomethacin (pH 7.4). The cells are homogenised using a Polytron tissue disrupter (2×10 s burst at full setting), centrifuged at 48,000×g for 20mins and the pellet containing the membrane fraction is washed (optional) three times by suspension and centrifugation at 48,000×g for 20mins. The final membrane pellet is suspended in an assay buffer such as 10 mM 2-[N-morpholino]ethanesulphonic acid, 1 mM Na2EDTA, 10 mM MgCl2 (pH 6). Aliquots are frozen at −80° C. until required.
For the binding assay the cell membranes, competing compounds and [^3H]-PGE2 (3 nM final assay concentration) are incubated in a final volume of 100 μl for 30 min at 30° C. All reagents are prepared in assay buffer. Reactions are terminated by rapid vacuum filtration over GF/B filters using a Brandell cell harvester. The filters are washed with ice cold assay buffer, dried and the radioactivity retained on the filters is measured by liquid scintillation counting in Packard TopCount scintillation counter.
The data are analysed using non linear curve fitting techniques to determine the concentration of compound producing 50% inhibition of specific binding (IC50).

[4] = target: T4, EP1 receptor (Rattus norvegicus, UniProt P70597); design: host or cells: rodent, in vivo; details: rodent, post-operative pain; cited from earlier work
T4 sequence (P70597 1-405): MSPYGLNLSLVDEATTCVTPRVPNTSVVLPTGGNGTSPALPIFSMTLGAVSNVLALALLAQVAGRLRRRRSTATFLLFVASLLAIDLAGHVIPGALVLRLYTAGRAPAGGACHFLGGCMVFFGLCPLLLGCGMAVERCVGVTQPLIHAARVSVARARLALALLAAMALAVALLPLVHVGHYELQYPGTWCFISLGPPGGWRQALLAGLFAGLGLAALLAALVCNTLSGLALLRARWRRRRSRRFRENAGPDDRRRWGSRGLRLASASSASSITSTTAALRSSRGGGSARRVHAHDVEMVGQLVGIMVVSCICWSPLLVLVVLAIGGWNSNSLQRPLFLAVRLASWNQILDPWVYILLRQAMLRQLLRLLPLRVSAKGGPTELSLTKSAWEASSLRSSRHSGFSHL

[5] = target: T4, EP1 receptor; design: host or cells: rat, in vivo; details: chronic constriction injury; cited from earlier work

Compound	Ki [1] [nM]	IC50 ([2]; human EP1 calcium mobilisation assay, read-out: pIC50 values (converted)) [nM]	Ki [2] [nM]	IC50 [3] [nM]	mechanical hyperalgesia [4]	hyperalgesia and allodynia [5]
CC(C)COc1ccc(Cl)cc1Cc1cccc(-c2nc3ncccc3[nH]2)n1 [Example 21, 2-[6-({5-Chloro-2-[(2-methylpropyl)oxy]phenyl}methyl)-2-pyridinyl]-1H-imidazo[4,5-b]pyridine hydrochloride]	≤ 3160		≤ 316	≤ 100		
CC(C)COc1ccc(Cl)cc1Cc1cccc(-c2nc3cc4cnn(C)c4cc3[nH]2)n1 [Example 23, 6-[6-({5-Chloro-2-[(2-methylpropyl)oxy]phenyl}methyl)-2-pyridinyl]-1-methyl-1,5-dihydroimidazo[4,5-f]indazolehydrochloride]	≤ 1000		≤ 316			
CC(C)COc1ccc(Cl)cc1Cc1cccc(-c2nc3c(ccc4nn[nH]c43)[nH]2)n1 [Example 25, 7-[6-({5-Chloro-2-[(2-methylpropyl)oxy]phenyl}methyl)-2-pyridinyl]-1,6-dihydroimidazo[4,5-e][1,2,3]benzotriazolehydrochloride]	≤ 1000		≤ 316			
Clc1ccc(OCc2ccccc2)c(Cc2cccc(-c3nc4cncnc4[nH]3)n2)c1 [Example 33, 8-[6-({5-Chloro-2-[(phenylmethyl)oxy]phenyl}methyl)-2-pyridinyl]-1H-purinehydrochloride]	≤ 1000		≤ 316	≤ 100		
Clc1ccc(OCc2ccccc2)c(Cc2cccc(-c3nc4cc5cn[nH]c5cc4[nH]3)n2)c1 [Example 39, 6-[6-({5-Chloro-2-[(phenylmethyl)oxy]phenyl}methyl)-2-pyridinyl]-1,5-dihydroimidazo[4,5-f]indazolehydrochloride]	≤ 3160		≤ 316	≤ 100		
CC(C)COc1ccc(Cl)cc1Cc1cccc(-c2nc3ccc(CN4CCCC4)cc3[nH]2)n1 [Example 49, 2-[6-({5-Chloro-2-[(2-methylpropyl)oxy]phenyl}methyl)-2-pyridinyl]-5-(1-pyrrolidinylmethyl)-1H-benzimidazole hydrochloride]	≤ 3160		≤ 10000			
CC(C)COc1ccc(Cl)cc1Cc1cccc(-c2nc3ccc(CN(C)C)cc3[nH]2)n1 [Example 51, ({2-[6-({5-Chloro-2-[(2-methylpropyl)oxy]phenyl}methyl)-2-pyridinyl]-1H-benzimidazol-5-yl}methyl)dimethylaminehydrochloride]	≤ 3160		≤ 316	≤ 100		
Cc1cc(Cl)ccc1S(=O)(=O)NC[C@H]1C2CCC(CC2)[C@@H]1/C=C\CCCC(=O)O [ONO-8711]					inhibits mechanical hyperalgesia	reduces hyperalgesia and allodynia

The next lines start with results.

Ki [1] [nM]	IC50 ([2]; human EP1 calcium mobilisation assay, read-out: pIC50 values (converted)) [nM]	Ki [2] [nM]	IC50 [3] [nM]	Compound	mechanical hyperalgesia [4]	hyperalgesia and allodynia [5]
≤ 3160	> 10000			CC(C)(C)NC(=O)c1cccc(Cc2cc(Cl)ccc2OCc2ccccc2)n1 [Example 8, 6-({5-Chloro-2-[(phenylmethyl)oxy]phenyl}methyl)-N-(1,1-dimethylethyl)-2-pyridinecarboxamide]		
≤ 1000		≤ 316		CC(C)NC(=O)c1cccc(Cc2cc(Cl)ccc2OCc2ccccc2)n1 [Example 9, 6-({5-Chloro-2-[(phenylmethyl)oxy]phenyl}methyl)-N-(1-methylethyl)-2-pyridinecarboxamide]		
≤ 3160		≤ 316		O=C(Nc1cccc(Cc2cc(Cl)ccc2OCc2ccccc2)n1)C1CCOCC1 [Example 14, N-[6-({5-Chloro-2-[(phenylmethyl)oxy]phenyl}methyl)-2-pyridinyl]tetrahydro-2H-pyran-4-carboxamide]		
≤ 1000		≤ 316	≤ 100	Clc1ccc(OCc2ccccc2)c(Cc2cccc(-c3ncc[nH]3)n2)c1 [Example 43, 2-({5-Chloro-2-[(phenylmethyl)oxy]phenyl}methyl)-6-(1H-imidazol-2-yl)pyridine Hydrochloride]		
